Measurements taken from patent publication US20150203526A1, “NOVEL 19-NOR-STEROIDS AND THEIR USE FOR TREATING PROGESTERONE- DEPENDENT CONDITIONS” (REPROS THERAPEUTICS INC., priority 2010, published 2015).
In brackets after ≈: the same amount, converted by molar mass. Read-outs that look alike come from different tables or passages of the source.

Legend:
[1] = Thermodynamic solubility (solid shaken in solvent at 37° C., filtrate by LC/UV); format: physicochemical
Protocol: Briefly, 300 ul of solvent (ethanol, 0.1 M HCl or distilled H2O) were added to 14-16 mg of the solid compound (5 parallel measurements per sample, per solvent, mean concentrations 93-107 mM). The mixtures were shaken at 37° C. for 24 and 72 hours. Concentrations of the filtrates were determined by liquid chromatography with UV detector (LC/UV) with 3-point calibration.
Crystal form was checked by X-ray powder diffraction (XRPD) after recovering the slurry at 24 and 72 hours. […] The exact cause of this observed phenomenon is not known.

[2] = system: liver aminotransferases; test: Clinical trials of daily oral CDB-4124 (Proellex): liver toxicity / liver enzymes; format: in vivo, human
Protocol: (§1) The maximum concentrations of CDB-4124 and its mono-demethylated metabolite (CDB-4453) for the 12.5 mg dose were 25% of the 50 mg dose. All liver toxicities resolved in those women that returned for safety follow-ups, including those subjects that developed liver-associated serious adverse effects (SAEs).
To date, over 600 patients, including women with confirmed cases of endometriosis or uterine fibroids, have participated in double blind and open label clinical trials in which patients were administered daily oral capsules containing doses of 12.5 mg, 25 mg or 50 mg CDB-4124 (Proellex) for over one month. Of these patients, about 500 received Proellex and about 130 received a placebo. Of the patients receiving Proellex, about 190 received a dose of 50 mg CDB-4124 per day, about 260 received a dose of 25 mg CDB-4124 per day and about 55 received a dose of 12.5 mg per day.
Liver enzymes were frequently monitored in participating subjects. The liver enzyme level at which the clinical trials would be discontinued was set at an increase in liver aminotransferases greater than, or equal to three times the Upper Limit of Normal (≧3×ULN).
Of the nine subjects with a confirmed increase in liver enzymes≧3×ULN, seven were severe enough elevations to be reported to the FDA as SAEs. One of these seven subjects had been receiving a dose of 25 mg CDB-4124 per day; the remaining six subjects had been receiving a dose of 50 mg CDB-4124 per day. Liver enzymes≧3×ULN persisted in five of the nine subjects with a confirmed increase in liver enzymes≧3×ULN. These five subjects had previously been dosed with the 50 mg dose. One of these subjects is receiving oral medication for treatment of their liver condition. Clinical trials involving CDB-4124 at all doses were voluntarily suspended as a result of these SAEs and were subsequently placed on clinical hold by the United States Food and Drug Administration for safety reasons.

[3] = Pharmacokinetic studies on clinical trial subjects after oral CDB-4124; format: in vivo, human
Protocol: as §1
(§2) Pharmacokinetic studies performed on participating subjects detected a high Cmax and a Tmax at 1-2 hours following administration. […] Metabolism of CDB-4124 by the liver provides the opportunity for liver damage and greatly reduces the concentration of the antiprogestin before it reaches the systemic circulation. Thus, alternative routes of administration of antiprogestins that avoid first pass metabolism such as, without limitation, intravenous, intramuscular, and sublingual, should allow antiprogestins to be absorbed directly into the systemic circulation and thereby provide a method for treating progestone-dependent conditions while avoiding liver toxicity. Administration routes which avoid first pass metabolism may also require less drug per dose to achieve the same therapeutic benefit relative to oral administration.

[4] = system: human hepatocytes; test: Metabolism in primary cultures of human hepatocytes; format: in vitro ADME
Protocol: as §2

[5] = system: animal hepatocytes; test: Metabolism in primary cultures of animal hepatocytes; format: in vitro ADME
Protocol: as §2

[6] = system: DMBA-induced breast tumors; test: DMBA-induced breast tumor pre-clinical study; format: in vivo, rodents; conditions: subcutaneous injection
Protocol: Pre-clinical studies were performed on rodents with breast tumors induced by 7,12-Dimethylbenz(a)anthracene (DMBA).

[7] = Oral vs vaginal pharmacokinetics in beagles (25 mg); format: in vivo
Protocol: FIG. 1 illustrates a comparison of the Cmax (peak serum concentration) and area under the curve (AUC) following oral and vaginal administration of CDB-4124 or CDB-4453 at a 25 mg dose in beagles.
Beagles were administered 25 mg of CDB-4124 or CDB-4453 (the monodemethylated metabolite of CDB-4124) formulated as either a micronized powder or a vaginal suppository. […] Moreover, systemic exposure of the drug is much lower when administered locally (compare AUC for CDB-4124 and CDB-4453 when administered vaginally vs. orally).

[8] = Cmax after vaginal administration extrapolated from beagles to humans; format: in vivo; conditions: for Predicted Cmax for vaginal administration as percentage of the same dose administered orally: humans
Protocol: FIG. 2 illustrates the actual Cmax observed for Proellex (CDB-4124) and its monodemethylated metabolite CDB-4453, following oral administration of CDB-4124 at 12.5 mg, 25 mg and 50 mg doses as well as the projected Cmax for 3 mg, 6 mg and 9 mg doses. FIG. 2 also illustrates the actual Cmax observed for Proellex (CDB-4124) and its monodemethylated metabolite CDB-4453, following vaginal administration of CDB-4124 at 12.5 mg, 25 mg and 50 mg doses.
The maximum circulating concentrations (Cmax) of CDB-4124 obtained following vaginal administration to beagles were extrapolated to humans for the 12.5 mg, 25 mg and 50 mg doses actually administered during the Phase III clinical studies.
Because a high concentration of the drug in the systemic circulation (and associated first pass metabolism of the drug) is not reached by local administration, avoidance of the severe liver toxicity observed in a small percentage of subjects following oral administration of CDB-4124 in previous Phase III clinical studies at doses of 25 and 50 mg is a surprising advantage of administering the drug locally. Similar advantages should inure to local administration of other antiprogestins.

[9] = system: progesterone-induced endometrial proliferation; test: Anti-Clauberg study, subcutaneous vs oral; format: in vivo, rabbits
Description: FIG. 3 illustrates a comparison of the inhibition of progesterone-induced endometrial proliferation in estradiol-primed immature rabbits following subcutaneous injection and oral administration of CDB-4124
To determine whether the low circulating levels of CDB-4124 when administered locally could have any impact predictive of efficacy, an anti-Clauberg study was run in which immature estradiol-primed rabbits were coadministered progesterone and various doses of CDB-4124 by either subcutaneous or oral administration. At least 3 different highly trained individuals evaluated the rabbit uterus for glandular growth, for complexity and overall progesterone-induced “development”. The inhibition (by percentage) of progesterone-induced endometrial proliferation at each dose was assayed. […] However, maximal inhibition required a ˜8-fold increase in dosage when administered orally (i.e. 8 mg/kg). Importantly 8 mg/kg corresponds closely to the 50 mg/day dose of CDB-4124 administered to the female subjects described in Example 3.

[10] = system: progesterone-induced endometrial proliferation; test: Anti-Clauberg study, vaginal vs oral (McPhail index); format: in vivo, rabbits
Protocol: FIG. 4 compares the antiprogestational effects of three doses of CDB-4124 when delivered orally versus when delivered to the vaginal mucosa of estradiol-primed immature rabbits in the presence of progesterone, as measured by a decrease in the McPhail index. Treatment with progesterone alone (vehicle control) provided a baseline measurement of progestational activity.
Another anti-Clauberg study was run in which immature estradiol-primed rabbits were administered progesterone alone (vehicle control) or were co-administered progesterone and three doses of CDB-4124 by either vaginal or oral administration. The inhibition of progesterone-induced endometrial proliferation at each dose was assayed. FIG. 3 illustrates the decrease in the McPhail index following increasing doses of CDB-4124 administered by either route. Maximal inhibition (i.e. a decrease in the McPhail index to 1.5) occurred at 0.2 mg/kg CDB-4124 when administered vaginally, compared to 0.8 mg/kg when administered orally.

## COCC(=O)[C@@]1(OC(C)=O)CC[C@H]2[C@@H]3CCC4=CC(=O)CCC4=C3[C@@H](c3ccc(N(C)C)cc3)C[C@@]21C [CDB-4124]
[1]; 0.1M HCl, 24 h, read-out: Thermodynamic solubility, 0.1M HCl, Mean
  solubility thermodynamic at 72 h: 53.09 µM (≈ 26.8 µg/mL)
[1]; 0.1M HCl, 72 h, read-out: Thermodynamic solubility, 0.1M HCl, Mean
  solubility thermodynamic at 72 h: 56.12 µM (≈ 28.4 µg/mL)
[1]; distilled water, 24 h, read-out: Thermodynamic solubility, distilled water, Mean
  solubility thermodynamic at 72 h: 7.10 µM (≈ 3.59 µg/mL)
[1]; distilled water, 72 h, read-out: Thermodynamic solubility, distilled water, Mean
  solubility thermodynamic at 72 h: 3.20 µM (≈ 1.62 µg/mL)
[1]; ethanol, 24 h
  Thermodynamic solubility, Ethanol, Mean: 36800 µM
[1]; ethanol, 72 h
  Thermodynamic solubility, Ethanol, Mean: 34100 µM
[2]; 25 mg CDB-4124 per day
  Subjects with elevations reported as SAEs: One
[2]; 50 mg CDB-4124 per day
  Subjects with elevations reported as SAEs: six
[2]; all doses
  Subjects with elevations severe enough to be reported as SAEs: seven
[2]; all doses, before repeat test
  Subjects found to exhibit an increase in liver enzymes ≧3×ULN: thirteen
[2]; all doses, confirmed by repeat test in 48 hours
  Subjects with confirmed increase in liver enzymes ≧3×ULN: nine
[2]; oral, 12.5 mg
  Adverse liver toxicity signals: no adverse liver toxicity signals different from placebo
[2]; oral, 25 mg/day vs 50 mg/day
  Liver toxicity effects at 25 mg/day compared with 50 mg/day: significantly lower in frequency and intensity
[2]; oral, 50 mg/day
  Women exhibiting severe liver toxicity: 3-4%
[2]; previously dosed with the 50 mg dose
  Subjects in whom liver enzymes ≧3×ULN persisted: five
[3]; following oral administration
  Cmax: high
  Monodemethylated metabolite detected (first pass metabolism): Large quantities
  Tmax: 1 to 2 h
[3]; oral CDB-4124, 12.5 mg vs 50 mg
  Maximum concentration for the 12.5 mg dose relative to the 50 mg dose: 25%
[4]
  Production of the mono-demethylated metabolite: rapidly produce the mono-demethylated metabolite
[5]
  Production of the mono-demethylated metabolite: rapidly produce the mono-demethylated metabolite
[6]
  Effect on quantity and size of DMBA-induced breast tumors: effective in reducing the quantity and size of DMBA-induced breast tumors
[7]; oral micronized powder
  Metabolism after peak plasma concentration: rapidly metabolized
[7]; vaginal suppository
  Metabolism: metabolized slowly
  Peak plasma concentrations (Cmax): relatively low
[7]; vaginal vs oral
  Systemic exposure (AUC), local vs oral: much lower
[8]; 12.5 mg dose
  Predicted Cmax for vaginal administration as percentage of the same dose administered orally: approximately 6.5%
[8]; 12.5 mg vaginal vs 50 mg oral
  Cmax with 12.5 mg vaginal dose relative to 50 mg oral dose: 2%
[8]; 50 mg dose
  Predicted Cmax for vaginal administration as percentage of the same dose administered orally: approximately 2%
[9]; oral
  Dose required for maximal inhibition: 8 mg/kg
[9]; oral vs subcutaneous
  Increase in dosage required for maximal inhibition, oral vs subcutaneous: ~8 fold
[9]; subcutaneous
  Dose at which maximal inhibition was observed: less than 1 mg/kg
[10]; 0.2 mg/kg vaginal or 0.8 mg/kg oral
  McPhail index at maximal inhibition: 1.5
[10]; oral
  Dose at which maximal inhibition occurred: 0.8 mg/kg
[10]; vaginal
  Dose at which maximal inhibition occurred: 0.2 mg/kg
[10]; vaginal vs oral
  Antiprogestational activity of vaginal delivery relative to the same oral dose: four times the antiprogestational activity

## CC(=O)OCC(=O)[C@@]1(OC(C)=O)CC[C@H]2[C@@H]3CCC4=CC(=O)CCC4=C3[C@@H](c3ccc(C(C)=O)cc3)C[C@@]21C [CDB-4241, 21-acetoxy-17α-acetoxy-11β-(4-acetylphenyl)-19-norpregna-4,9-diene-3,20-dione]
[1]; organic solvent or mixture, thermodynamic from solid, ethanol, 24 h, read-out: Thermodynamic solubility, Ethanol, Mean
  solubility thermodynamic at 24 h: 26300 µM (≈ 14000 µg/mL)
[1]; organic solvent or mixture, thermodynamic from solid, ethanol, 72 h, read-out: Thermodynamic solubility, Ethanol, Mean
  solubility thermodynamic at 72 h: 21600 µM (≈ 11500 µg/mL)
[1]; simulated gastric fluid, thermodynamic from solid, 0.1M HCl, 24 h, read-out: Thermodynamic solubility, 0.1M HCl, Mean
  solubility thermodynamic at 24 h: 3.21 µM (≈ 1.71 µg/mL)
[1]; simulated gastric fluid, thermodynamic from solid, 0.1M HCl, 72 h, read-out: Thermodynamic solubility, 0.1M HCl, Mean
  solubility thermodynamic at 72 h: 3.9 µM (≈ 2.08 µg/mL)
[1]; thermodynamic from solid, distilled water, 24 h, read-out: Thermodynamic solubility, Distilled water, Mean
  solubility thermodynamic at 24 h: 3.08 µM (≈ 1.64 µg/mL)
[1]; thermodynamic from solid, distilled water, 72 h, read-out: Thermodynamic solubility, distilled water, Mean
  solubility thermodynamic at 72 h: 3.05 µM (≈ 1.62 µg/mL)
